From US6737383B1, “Herbicidal oxadiazolidines” (priority 1999, dated 2004)

Tests used:
[1] = system: wheat; assay: Test B pre/postemergence wheat; type: in vivo, Triticum aestivum
Method in brief: (§1)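 Response is a visual 0-to-10 score relative to untreated plants, where 0 means no effect and 10 means complete control, taken twelve to sixteen days after application. Treatments went onto soil at planting and onto foliage of 1- to 4-leaf plants, using a surfactant-containing non-phytotoxic solvent.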

[2] = system: blackgrass; assay: Test B pre/postemergence blackgrass; type: in vivo, Alopecurus myosuroides
Method in brief: as §1

[3] = system: bamyardgrass; assay: Test B flood test barnyardgrass; type: in vivo, Echinochloa crus-galli
Method in brief: (§2)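 Flood test on plants grown to the 2-leaf stage; treated plants kept in greenhouse twelve to sixteen days, then visually rated against controls on a 0 (no effect) to 10 (complete control) scale.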

[4] = system: rice; assay: Test B flood test rice; type: in vivo, Oryza sativa
Method in brief: as §2

[5] = system: soybean; assay: Test B pre/postemergence soybean; type: in vivo, Glycine max
Method in brief: as §1

[6] = system: rape; assay: Test B pre/postemergence rape; type: in vivo, Brassica napus
Method in brief: as §1

[7] = system: purple nutsedge; assay: Test B pre/postemergence purple nutsedge; type: in vivo, Cyperus rotundus
Method in brief: as §1

[8] = system: cocklebur; assay: Test B pre/postemergence cocklebur; type: in vivo, Xanthium strumarium
Method in brief: as §1

[9] = system: surinam grass; assay: Test B pre/postemergence surinam grass; type: in vivo, Brachiaria decumbens
Method in brief: as §1

[10] = system: velvetleaf; assay: Test B pre/postemergence velvetleaf; type: in vivo, Abutilon theophrasti
Method in brief: as §1

[11] = system: duck salad; assay: Test B flood test duck salad; type: in vivo, Heteranthera limosa
Method in brief: as §2

[12] = system: crabgrass; assay: Test B pre/postemergence crabgrass; type: in vivo, Digitaria sanguinalis
Method in brief: as §1

[13] = system: wild oat; assay: Test B pre/postemergence wild oat; type: in vivo, Avena fatua
Method in brief: as §1

[14] = system: corn; assay: Test B pre/postemergence corn; type: in vivo, Zea mays
Method in brief: as §1

[15] = system: bedstraw; assay: Test B pre/postemergence bedstraw; type: in vivo, Galium aparine
Method in brief: as §1

[16] = system: sugar beet; assay: Test B pre/postemergence sugar beet; type: in vivo, Beta vulgaris
Method in brief: as §1

[17] = system: smallflower flatsedge; assay: Test B flood test smallflower flatsedge; type: in vivo, Cyperus difformis
Method in brief: as §2

[18] = Postemergence, Rate 62 g/ha, scale 0 to 10, 0 is no effect, 10 is complete control
[19] = Postemergence, Rate 250 g/ha, scale 0 to 10, 0 no effect, 10 complete control
[20] = Preemergence, Rate 62 g/ha, scale 0 to 10, 0 is no effect, 10 is complete control
[21] = Preemergence, Rate 125 g/ha, scale 0 to 10 (0 no effect, 10 complete control)
[22] = Preemergence, Rate 250 g/ha, scale of 0 to 10 where 0 is no effect and 10 is complete control
[23] = Preemergence, Rate 500 g/ha, scale 0 (no effect) to 10 (complete control)
[24] = Rate 125 g/ha, Postemergence, scale 0 to 10, 0 no effect, 10 complete control
[25] = Rate 500 g/ha, Postemergence, 0 to 10 scale (0 no effect, 10 complete control)
[26] = Rate 125 g/ha, Postemergence section (flood test species), scale 0 to 10, 0 no effect, 10 complete control
[27] = Rate 250 g/ha, headed Pre-emergence (flood test species), scale 0 to 10 (0 no effect, 10 complete control)
[28] = Rate 500 g/ha, Postemergence section of Table B, 0 to 10 scale (0 no effect, 10 complete control)
[29] = Rate 500 g/ha, headed Pre-emergence (flood test species), scale 0 to 10 (0 no effect, 10 complete control)
[30] = Rate 1000 g/ha, Pre-emergence (as headed), scale 0 to 10
[31] = flood test, listed under Postemergence, Rate 250 g/ha, scale 0 to 10, 0 no effect, 10 complete control
[32] = Rate 2000 g/ha, Pre-emergence (as headed), scale 0 to 10

SMILES: Cc1cccc(C)c1-n1c(=O)on(C(=O)N(c2ccccc2)C(C)C)c1=O [Compound 46]
- Wheat plant response rating [1, 18]: 0
- Wheat plant response rating [1, 19]: 0
- Plant response rating, Wheat [1, 20]: 0
- Plant response rating, Wheat [1, 21]: 0
- Plant response rating, Wheat [1, 22]: 0
- Wheat plant response rating [1, 23]: 0
- Wheat plant response rating [1, 24]: 0
- Blackgrass plant response rating [2, 18]: 0
- Blackgrass plant response rating [2, 19]: 6
- Plant response rating, Blackgrass [2, 20]: 0
- Plant response rating, Blackgrass [2, 21]: 0
- Plant response rating, Blackgrass [2, 22]: 2
- Blackgrass plant response rating [2, 23]: 7
- Blackgrass plant response rating [2, 24]: 0
- Blackgrass plant response rating [2, 25]: 6
- Barnyardgrass plant response rating [3, 18]: 0
- Barnyardgrass plant response rating [3, 26]: 0
- Barnyardgrass plant response rating [3, 27]: 0
- Barnyardgrass plant response rating [3, 28]: 0
- Plant response rating, Barnyardgrass [3, 29]: 0
- Barnyardgrass plant response rating [3, 30]: 0
- Barnyardgrass plant response rating ([3]; Rate 2000 g/ha, Pre-emergence (as headed), scale 0 to 10, 0 no effect, 10 complete control): 9
- Barnyardgrass plant response rating [3, 31]: 0
- Rice plant response rating [4, 18]: 0
- Rice plant response rating [4, 26]: 0
- Rice plant response rating [4, 27]: 0
- Rice plant response rating [4, 28]: 0
- Plant response rating, Rice [4, 29]: 0
- Rice plant response rating [4, 30]: 0
- Rice plant response rating [4, 32]: 0
- Rice plant response rating [4, 31]: 0
- Soybean plant response rating [5, 18]: 1
- Soybean plant response rating [5, 19]: 1
- Plant response rating, Soybean [5, 20]: 0
- Plant response rating, Soybean [5, 21]: 0
- Plant response rating, Soybean [5, 22]: 0
- Soybean plant response rating [5, 23]: 0
- Soybean plant response rating [5, 24]: 1
- Rape plant response rating [6, 18]: 0
- Rape plant response rating [6, 19]: 0
- Plant response rating, Rape [6, 20]: 0
- Plant response rating, Rape [6, 21]: 0
- Plant response rating, Rape [6, 22]: 0
- Rape plant response rating [6, 23]: 0
- Rape plant response rating [6, 24]: 0
- Rape plant response rating [6, 25]: 0
- Nutsedge plant response rating [7, 18]: 0
- Nutsedge plant response rating [7, 19]: 0
- Plant response rating, Nutsedge [7, 20]: 0
- Plant response rating, Nutsedge [7, 21]: 0
- Plant response rating, Nutsedge [7, 22]: 0
- Nutsedge plant response rating [7, 23]: 0
- Nutsedge plant response rating [7, 24]: 0
- Nutsedge plant response rating [7, 25]: 0
- Cocklebur plant response rating [8, 18]: 0
- Cocklebur plant response rating [8, 19]: 1
- Plant response rating, Cocklebur [8, 20]: 0
- Plant response rating, Cocklebur [8, 21]: 0
- Plant response rating, Cocklebur [8, 22]: 0
- Cocklebur plant response rating [8, 23]: 0
- Cocklebur plant response rating [8, 24]: 1
- Cocklebur plant response rating [8, 25]: 2
- B. signalgrass plant response rating [9, 18]: 0
- B. signalgrass plant response rating [9, 19]: 0
- Plant response rating, B. signalgrass [9, 20]: 0
- Plant response rating, B. signalgrass [9, 21]: 0
- Plant response rating, B. signalgrass [9, 22]: 2
- B. signalgrass plant response rating [9, 23]: 3
- B. signalgrass plant response rating [9, 24]: 0
- B. signalgrass plant response rating [9, 25]: 0
- Velvetleaf plant response rating [10, 18]: 0
- Velvetleaf plant response rating [10, 19]: 0
- Plant response rating, Velvetleaf [10, 20]: 0
- Plant response rating, Velvetleaf [10, 21]: 0
- Plant response rating, Velvetleaf [10, 22]: 0
- Velvetleaf plant response rating [10, 23]: 2
- Velvetleaf plant response rating [10, 24]: 0
- Ducksalad plant response rating [11, 18]: 0
- Ducksalad plant response rating [11, 27]: 0
- Ducksalad plant response rating [11, 28]: 0
- Plant response rating, Ducksalad [11, 29]: 0
- Ducksalad plant response rating [11, 30]: 2
- Ducksalad plant response rating [11, 32]: 2
- Ducksalad plant response rating [11, 31]: 0
- Crabgrass plant response rating [12, 18]: 0
- Crabgrass plant response rating [12, 19]: 3
- Plant response rating, Crabgrass [12, 20]: 1
- Plant response rating, Crabgrass [12, 21]: 4
- Plant response rating, Crabgrass [12, 22]: 10
- Crabgrass plant response rating [12, 23]: 10
- Crabgrass plant response rating [12, 24]: 0
- Crabgrass plant response rating [12, 25]: 3
- Wild oats plant response rating [13, 18]: 0
- Wild oats plant response rating [13, 19]: 0
- Plant response rating, Wild oats [13, 21]: 0
- Plant response rating, Wild oats [13, 22]: 0
- Wild oats plant response rating [13, 23]: 0
- Wild oats plant response rating [13, 24]: 0
- Corn plant response rating [14, 18]: 0
- Corn plant response rating [14, 19]: 0
- Plant response rating, Corn [14, 20]: 0
- Plant response rating, Corn [14, 21]: 0
- Plant response rating, Corn [14, 22]: 0
- Corn plant response rating [14, 23]: 0
- Corn plant response rating [14, 24]: 0
- Corn plant response rating [14, 25]: 0
- Bedstraw plant response rating [15, 18]: 0
- Plant response rating, Bedstraw [15, 20]: 0
- Plant response rating, Bedstraw [15, 21]: 0
- Plant response rating, Bedstraw [15, 22]: 0
- Bedstraw plant response rating [15, 23]: 0
- Bedstraw plant response rating [15, 24]: 0
- Sugarbeets plant response rating [16, 18]: 0
- Sugarbeets plant response rating [16, 19]: 0
- Plant response rating, Sugarbeets [16, 20]: 0
- Plant response rating, Sugarbeets [16, 21]: 3
- Plant response rating, Sugarbeets [16, 22]: 3
- Sugarbeets plant response rating [16, 23]: 6
- Sugarbeets plant response rating [16, 24]: 0
- S. Flatsedge plant response rating [17, 18]: 0
- S. Flatsedge plant response rating ([17]; Pre-emergence, Rate 1000 g/ha, scale 0 to 10 (0 no effect, 10 complete control)): 0
- S. Flatsedge plant response rating [17, 26]: 0
- S. Flatsedge plant response rating [17, 27]: 0
- Plant response rating, S. Flatsedge [17, 29]: 0
- S. Flatsedge plant response rating [17, 32]: 8
- S. Flatsedge plant response rating [17, 31]: 0
